In patent US20250163052A1, “cGAS INHIBITORS AND USES THEREOF” (Cornell University, priority 2022, published 2025):

Test system: MEF2C target genes
Assay: Single-nuclei RNA-seq of excitatory and inhibitory neurons, overlap with MEF2C target genes
Type: in vivo, mouse
Conditions: P301S mice, 150 mg/kg diet for three months; snRNA-seq
Protocol: Hippocampi isolation from frozen mouse hippocampi was adapted from a previous study with modifications (Grubman et al., 2019; Habib et al., 2017). All procedures were done on ice or at 4° C. In brief, post-mortem brain tissue was placed in 1500 μl of Sigma nuclei PURE lysis buffer (Sigma, NUC201-1KT) and homogenized with a Dounce tissue grinder (Sigma, D8938-1SET) with 20 strokes with pestle A and 15 strokes with pestle B. The homogenized tissue was filtered through a 35-μm cell strainer, then centrifuged at 600 g for 5 min at 4° C. and washed three times with 1 ml of PBS containing 1% BSA, 20 mM DTT and 0.2 U μl^−1 recombinant RNase inhibitor. […] The FACS-sorted suspension of DAPI-stained nuclei were counted and diluted to a concentration of 1000 nuclei per microliter in PBS containing 0.04% BSA. […]
Gene counts were obtained by aligning reads to the mm10 genome with Cell Ranger software (v.3.1.0) (10× Genomics). To account for unspliced nuclear transcripts, reads mapping to pre-mRNA were counted. […] We further removed genes expressed in no more than 2 cells, cells with unique gene counts over 4,000 or less than 200, and cells with high fraction of mitochondrial reads (>5%). […] To identify gene ontology and pathways enriched in the differentially expressed genes (DEGs), DEGS were analysed using (MSigDB) gene annotation database (Liberzon et al., 2011; Subramanian et al., 2005). […]

Cn1c2c(c3ccc(Cl)c(F)c31)CN(C(=O)CO)CC2 [TDI-6570, reference compound]
Enrichment of MEF2C target genes in DEGs of excitatory and inhibitory neurons: strong enrichment of MEF2C target genes
